Bounds are passed on as bounds.

One may read the IC50 as the concentration needed to halve the response being measured.

Sequence of human PDE4D catalytic domain (Q08499 380-740 limits assumed): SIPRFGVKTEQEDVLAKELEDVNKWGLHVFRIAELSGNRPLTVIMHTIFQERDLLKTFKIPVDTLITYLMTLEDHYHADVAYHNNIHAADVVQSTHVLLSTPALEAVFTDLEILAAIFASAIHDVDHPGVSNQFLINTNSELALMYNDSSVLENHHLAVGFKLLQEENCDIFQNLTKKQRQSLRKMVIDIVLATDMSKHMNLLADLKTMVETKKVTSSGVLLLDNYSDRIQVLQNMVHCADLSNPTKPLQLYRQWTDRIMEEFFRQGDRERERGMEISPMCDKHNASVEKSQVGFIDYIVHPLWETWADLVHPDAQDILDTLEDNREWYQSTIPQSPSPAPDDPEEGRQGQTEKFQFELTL

In the test the target is human PDE4D catalytic domain (UniProt no. Q08499) (Homo sapiens (Human), UniProt Q08499). Briefly: PDE4 assay (TR-FRET, FAM-cAMP cleavage). The format is biochemical. To be noted: human PDE4D catalytic domain; molar concentration giving 50% inhibition of substrate cleavage; read-out: PDE4 IC50 range. The method, then:
The human PDE4D catalytic domain (UniProt no. Q08499 [[…]]) was incubated with a mixture of non-labelled cAMP (cyclic adenosine monophosphate) and fluorescein amidite (FAM) conjugated cAMP and titrated test or reference compound. Following brief incubation the enzymatic reaction was stopped by addition of binding buffer containing nanoparticles with immobilized trivalent metal ions capable of binding 1) AMP phospho groups and 2) terbium (Tb) donor fluorophores. Subsequent excitation of the Tb donor triggers time-resolved FRET to adjacent FAM acceptor molecules resulting in light emission. In the presence of a PDE4 inhibitor, AMP generation was reduced resulting in a lower fluorescence signal. The cAMP phosphodiester is not bound by the detection system.
The results were calculated as the molar concentrations resulting in 50% inhibition of the substrate cleavage compared to controls samples, and are expressed as a range of IC50 (nM).
As to `CCc1nn(CCCOC(=O)c2ccc(C#N)cc2F)c2c1C(=O)NCC1(CCOCC1)C2` [Example 54, 3-(3-ethyl-4-oxo-spiro[6,8-dihydro-5H-pyrazolo[4,3-c]azepine-7,4′-tetrahydropyran]-1-yl)propyl 4-cyano-2-fluoro-benzoate], the IC50 was less than 100 nM.

Regarding `CCc1nn(CCCOC(=O)c2ccc(F)c(C#N)c2)c2c1C(=O)NCC1(CCOCC1)C2` [Example 55, 3-(3-ethyl-4-oxo-spiro[6,8-dihydro-5H-pyrazolo[4,3-c]azepine-7,4′-tetrahydropyran]-1-yl)propyl 3-cyano-4-fluoro-benzoate], the IC50 was less than 100 nM. `CCc1nn(CCCOC(=O)c2cc(C#N)ccc2F)c2c1C(=O)NCC1(CCOCC1)C2` [Example 56, 3-(3-ethyl-4-oxo-spiro[6,8-dihydro-5H-pyrazolo[4,3-c]azepine-7,4′-tetrahydropyran]-1-yl)propyl 5-cyano-2-fluoro-benzoate]: the IC50 is less than 100 nM. On to `CCc1nn(CCCOC(=O)c2ccc3c(c2)OCO3)c2c1C(=O)NCC1(CCOCC1)C2` [Example 57, 3-(3-ethyl-4-oxo-spiro[6,8-dihydro-5H-pyrazolo[4,3-c]azepine-7,4′-tetrahydropyran]-1-yl)propyl 1,3-benzodioxole-5-carboxylate], for which the IC50 was less than 100 nM. With `CCc1nn(CCCOC(=O)c2ccc(OC)c(C)c2)c2c1C(=O)NCC1(CCOCC1)C2` [Example 58, 3-(3-ethyl-4-oxo-spiro[6,8-dihydro-5H-pyrazolo[4,3-c]azepine-7,4′-tetrahydropyran]-1-yl)propyl 4-methoxy-3-methyl-benzoate], the IC50 was less than 100 nM. The figure for `CCc1nn(CCCOC(=O)c2ccc(C)c(OC)c2)c2c1C(=O)NCC1(CCOCC1)C2` [Example 59, 3-(3-ethyl-4-oxo-spiro[6,8-dihydro-5H-pyrazolo[4,3-c]azepine-7,4′-tetrahydropyran]-1-yl)propyl 3-methoxy-4-methyl-benzoate] is less than 100 nM; for `CCc1nn(CCCOC(=O)c2ccc(C)cc2OC)c2c1C(=O)NCC1(CCOCC1)C2` [Example 60, 3-(3-ethyl-4-oxo-spiro[6,8-dihydro-5H-pyrazolo[4,3-c]azepine-7,4′-tetrahydropyran]-1-yl)propyl 2-methoxy-4-methyl-benzoate] it is less than 100 nM.

On to `CCOc1cccc(C(=O)OCCCn2nc(CC)c3c2CC2(CCOCC2)CNC3=O)c1` [Example 61, 3-(3-ethyl-4-oxo-spiro[6,8-dihydro-5H-pyrazolo[4,3-c]azepine-7,4′-tetrahydropyran]-1-yl)propyl 3-ethoxybenzoate], for which the half-inhibitory concentration (IC50) is less than 100 nM. On to `CCc1nn(CCCOC(=O)c2ccc(OC)c(F)c2)c2c1C(=O)NCC1(CCOCC1)C2` [Example 62, 3-(3-ethyl-4-oxo-spiro[6,8-dihydro-5H-pyrazolo[4,3-c]azepine-7,4′-tetrahydropyran]-1-yl)propyl 3-fluoro-4-methoxy-benzoate], for which the IC50 is less than 100 nM. Turning to `CCc1nn(CCCOC(=O)c2cc(F)cc(OC)c2)c2c1C(=O)NCC1(CCOCC1)C2` [Example 63, 3-(3-ethyl-4-oxo-spiro[6,8-dihydro-5H-pyrazolo[4,3-c]azepine-7,4′-tetrahydropyran]-1-yl)propyl 3-fluoro-5-methoxy-benzoate], the concentration for half-maximal inhibition (IC50) is less than 100 nM. For the molecule `CCc1nn(CCCOC(=O)c2ccc(OC)cc2F)c2c1C(=O)NCC1(CCOCC1)C2` [Example 64, 3-(3-ethyl-4-oxo-spiro[6,8-dihydro-5H-pyrazolo[4,3-c]azepine-7,4′-tetrahydropyran]-1-yl)propyl 2-fluoro-4-methoxy-benzoate], the IC50 is less than 100 nM. For `CCc1nn(CCCOC(=O)c2ccc(F)c(OC)c2)c2c1C(=O)NCC1(CCOCC1)C2` [Example 65, 3-(3-ethyl-4-oxo-spiro[6,8-dihydro-5H-pyrazolo[4,3-c]azepine-7,4′-tetrahydropyran]-1-yl)propyl 4-fluoro-3-methoxy-benzoate] the value was less than 100 nM.

In the case of `CCc1nn(CCCOC(=O)c2cccc(OC)c2F)c2c1C(=O)NCC1(CCOCC1)C2` [Example 66, 3-(3-ethyl-4-oxo-spiro[6,8-dihydro-5H-pyrazolo[4,3-c]azepine-7,4′-tetrahydropyran]-1-yl)propyl 2-fluoro-3-methoxy-benzoate], the 50% inhibitory concentration (IC50) was less than 100 nM. For `CCc1nn(CCCOC(=O)c2cc(OC)ccc2F)c2c1C(=O)NCC1(CCOCC1)C2` [Example 67, 3-(3-ethyl-4-oxo-spiro[6,8-dihydro-5H-pyrazolo[4,3-c]azepine-7,4′-tetrahydropyran]-1-yl)propyl 2-fluoro-5-methoxy-benzoate] the value was less than 100 nM.

On to `CCc1nn(CCCOC(=O)c2cc(F)ccc2OC)c2c1C(=O)NCC1(CCOCC1)C2` [Example 68, 3-(3-ethyl-4-oxo-spiro[6,8-dihydro-5H-pyrazolo[4,3-c]azepine-7,4′-tetrahydropyran]-1-yl)propyl 5-fluoro-2-methoxy-benzoate], for which the half-inhibitory concentration (IC50) was less than 100 nM. Turning to `CCc1nn(CCCOC(=O)c2c(F)cccc2OC)c2c1C(=O)NCC1(CCOCC1)C2` [Example 69, 3-(3-ethyl-4-oxo-spiro[6,8-dihydro-5H-pyrazolo[4,3-c]azepine-7,4′-tetrahydropyran]-1-yl)propyl 2-fluoro-6-methoxy-benzoate], the concentration for half-maximal inhibition (IC50) is less than 100 nM. As for `CCc1nn(CCCOC(=O)c2cccc(F)c2OC)c2c1C(=O)NCC1(CCOCC1)C2` [Example 70, 3-(3-ethyl-4-oxo-spiro[6,8-dihydro-5H-pyrazolo[4,3-c]azepine-7,4′-tetrahydropyran]-1-yl)propyl 3-fluoro-2-methoxy-benzoate], the IC50 is less than 100 nM. The figure for `CCc1nn(CCCOC(=O)c2ccc(F)cc2OC)c2c1C(=O)NCC1(CCOCC1)C2` [Example 71, 3-(3-ethyl-4-oxo-spiro[6,8-dihydro-5H-pyrazolo[4,3-c]azepine-7,4′-tetrahydropyran]-1-yl)propyl 4-fluoro-2-methoxy-benzoate] is less than 100 nM; for `CCc1nn(CCCOC(=O)c2ccc(C)c(Cl)c2)c2c1C(=O)NCC1(CCOCC1)C2` [Example 72, 3-(3-ethyl-4-oxo-spiro[6,8-dihydro-5H-pyrazolo[4,3-c]azepine-7,4′-tetrahydropyran]-1-yl)propyl 3-chloro-4-methyl-benzoate] it is less than 100 nM; for `CCc1nn(CCCOC(=O)c2ccc(C)cc2Cl)c2c1C(=O)NCC1(CCOCC1)C2` [Example 73, 3-(3-ethyl-4-oxo-spiro[6,8-dihydro-5H-pyrazolo[4,3-c]azepine-7,4′-tetrahydropyran]-1-yl)propyl 2-chloro-4-methyl-benzoate] it is less than 100 nM.

With `CCc1nn(CCCOC(=O)c2cccc(Cl)c2C)c2c1C(=O)NCC1(CCOCC1)C2` [Example 74, 3-(3-ethyl-4-oxo-spiro[6,8-dihydro-5H-pyrazolo[4,3-c]azepine-7,4′-tetrahydropyran]-1-yl)propyl 3-chloro-2-methyl-benzoate], the IC50 was less than 100 nM.

Regarding `CCc1nn(CCCOC(=O)c2cc(Cl)ccc2C)c2c1C(=O)NCC1(CCOCC1)C2` [Example 75, 3-(3-ethyl-4-oxo-spiro[6,8-dihydro-5H-pyrazolo[4,3-c]azepine-7,4′-tetrahydropyran]-1-yl)propyl 5-chloro-2-methyl-benzoate], the IC50 is less than 100 nM. `CCc1nn(CCCOC(=O)c2ccc(C(F)F)cc2)c2c1C(=O)NCC1(CCOCC1)C2` [Example 76, 3-(3-ethyl-4-oxo-spiro[6,8-dihydro-5H-pyrazolo[4,3-c]azepine-7,4′-tetrahydropyran]-1-yl)propyl 4-(difluoromethyl)benzoate]: the IC50 was less than 100 nM. On to `CCc1nn(CCCOC(=O)c2ccc(F)cc2Cl)c2c1C(=O)NCC1(CCOCC1)C2` [Example 77, 3-(3-ethyl-4-oxo-spiro[6,8-dihydro-5H-pyrazolo[4,3-c]azepine-7,4′-tetrahydropyran]-1-yl)propyl 2-chloro-4-fluoro-benzoate], for which the half-inhibitory concentration (IC50) is less than 100 nM. On to `CCc1nn(CCCOC(=O)c2cccc(Cl)c2F)c2c1C(=O)NCC1(CCOCC1)C2` [Example 78, 3-(3-ethyl-4-oxo-spiro[6,8-dihydro-5H-pyrazolo[4,3-c]azepine-7,4′-tetrahydropyran]-1-yl)propyl 3-chloro-2-fluoro-benzoate], for which the concentration for half-maximal inhibition (IC50) was less than 100 nM.

`CCc1nn(CCCOC(=O)c2cc(F)cc(Cl)c2)c2c1C(=O)NCC1(CCOCC1)C2` [Example 79, 3-(3-ethyl-4-oxo-spiro[6,8-dihydro-5H-pyrazolo[4,3-c]azepine-7,4′-tetrahydropyran]-1-yl)propyl 3-chloro-5-fluoro-benzoate]: the IC50 was less than 100 nM. Take `CCc1nn(CCCOC(=O)c2c(F)cccc2Cl)c2c1C(=O)NCC1(CCOCC1)C2` [Example 80, 3-(3-ethyl-4-oxo-spiro[6,8-dihydro-5H-pyrazolo[4,3-c]azepine-7,4′-tetrahydropyran]-1-yl)propyl 2-chloro-6-fluoro-benzoate]: the concentration for half-maximal inhibition (IC50) is less than 100 nM.

Take `CCc1nn(CCCOC(=O)c2ccc(Cl)c(F)c2)c2c1C(=O)NCC1(CCOCC1)C2` [Example 81, 3-(3-ethyl-4-oxo-spiro[6,8-dihydro-5H-pyrazolo[4,3-c]azepine-7,4′-tetrahydropyran]-1-yl)propyl 4-chloro-3-fluoro-benzoate]: the IC50 is less than 100 nM. For `CCc1nn(CCCOC(=O)c2cc(F)ccc2Cl)c2c1C(=O)NCC1(CCOCC1)C2` [Example 82, 3-(3-ethyl-4-oxo-spiro[6,8-dihydro-5H-pyrazolo[4,3-c]azepine-7,4′-tetrahydropyran]-1-yl)propyl 2-chloro-5-fluoro-benzoate], the 50% inhibitory concentration (IC50) is less than 100 nM.

(Values after patent US10906915B2, “Substituted pyrazoloazepin-4-ones and their use as phosphodiesterase inhibitors” (LEO Pharma A/S, priority 2016, dated 2021).)
